Measured values: publication PMC7024302, “Ultrashort Cationic Lipopeptides–Effect of N-Terminal Amino Acid and Fatty Acid Type on Antimicrobial Activity and Hemolysis” (Molecules, 2020)
Converted amounts (≈) assume the structure as drawn. Read-outs that look alike come from different tables or passages of the source. Residues, ends and D or L forms follow the SMILES beside them.

What was measured:
[1] = Determination of peptide hydrophobicity with RP-HPLC (adjusted retention time); format: physicochemical; conditions: Table 3; adjusted retention time as hydrophobicity; RP-HPLC C18, linear 10–55% acetonitrile over 60 min, 0.1% TFA, 25.0 °C, UV 214 nm, triplicate
Experimental: To determine peptide hydrophobicity, the Waters Alliance e2695 system with a Waters 2998 PDA Detector (software-Empower®3) was used. All analyses were carried out on a Phenomenex Luna C18(2) column (3.0 × 100 mm, 5 µm particle size, 100 Å pore size). The peptides were dissolved in water (0.1% TFA, v/v) to obtain a concentration of 1 g/L. UV detection at 214 nm was used, and aliquots (10 µL) were eluted with a linear 10–55% acetonitrile gradient in deionized water over 60 min at 25.0 ± 0.1 °C. The mobile phase flow rate was 0.5 mL/min. Both eluents contained 0.1% (v/v) of TFA. Each peptide sample was analyzed in triplicate.

S. aureus ATCC 25923 = format: cell-based, Staphylococcus aureus; conditions: ATCC 25923, 18 h
Description: (§1) The Acinetobacter baumannii ATCC BAA-1605, Candida albicans ATCC 10231, Enterococcus faecium ATCC 700221, Klebsiella aerogenes ATCC 13048 (previously known as Enterobacter aerogenes), Klebsiella pneumoniae ATCC 700603, Pseudomonas aeruginosa ATCC 9027, Staphylococcus aureus ATCC 25923 and MRSA ATCC 33591, were acquired from the American Type Culture Collection (ATCC). Before running the tests, beads with cryo-protected microorganisms were transferred into fresh MHB (BioMaxima, Lublin, Poland) for bacteria or RPMI-1640 for fungi and incubated for 24 h at 37 °C. Then, the culture was seeded on the Mueller-Hinton agar (MHA) plates (BioMaxima, Lublin, Poland) for bacteria or Sabouraud dextrose agar (SDA) plates (BioMaxima, Lublin, Poland) for fungi and incubated as just mentioned. Cell densities for all assays were adjusted spectrophotometrically (Multiskan™ GO Microplate Spectrophotometer, Thermo Fisher Scientific, Vantaa, Finland) at 600 nm for bacteria and at 530 nm for fungi.
(§2) The MICs were determined by broth microdilution method according to the Clinical and Laboratory Standard Institute guidelines. For this purpose initial inoculums of bacteria (5 × 10^5 CFU/mL) in MHB (BioMaxima, Lublin, Poland) and fungi (2 × 10^3 CFU/mL) in RPMI-1640 with 2% D-glucose (Merck, Darmstadt, Germany) prepared with MOPS (pH 7.0 ± 0.1 at 25 °C; Merck, Darmstadt, Germany) were exposed to the ranging concentration of lipopeptides (0.5–256 µg/mL) and incubated at 37 °C for 18 h and 24 h respectively. The experiments were conducted on 96-well microtiter polystyrene plates (Kartell, Italy). The MIC was taken as the lowest peptide concentration at which a noticeable growth of microorganisms was inhibited. All experiments were conducted in triplicate.

[2] = test system: S. aureus ATCC 33591 (MRSA); format: cell-based, Staphylococcus aureus; conditions: ATCC 33591, 18 h
Description: as §1, §2

P. aeruginosa ATCC 9027 = format: cell-based, Pseudomonas aeruginosa; conditions: ATCC 9027, 18 h
Description: as §1, §2

C. albicans ATCC 10231 = format: cell-based, Candida albicans
Description: as §1, §2

[3] = test system: human red blood cells (hRBCs); format: cell-based; conditions: red cells of human, 1 h
Experimental: The hemolysis assay was performed as described earlier according to the method of Avrahami and Shai. Fresh human red blood cells (hRBCs) with anticoagulant (EDTA) were rinsed three times with a PBS (Merck, Darmstadt, Germany) by centrifugation at 800× g for 10 min and resuspended in PBS. Lipopeptides were serially diluted on 96-well microtiter polystyrene plate and hRBCs were added to reach final volume of 100 µL. Peptide concentration ranged between 0.5 and 256 µg/mL and final hRBCs concentration was 4% (v/v). Controls for zero hemolysis (blank) and 100% hemolysis consisted of hRBCs suspended in PBS and 1% of Triton-X 100 (Merck, Darmstadt, Germany), respectively. The plate was incubated for 1 h at 37 °C and then centrifuged (800× g, 10 min, 4 °C). Subsequently, supernatant was […] to new microtiter plates and absorbance at 540 nm were measured. All experiments were conducted in triplicate. Protocol of the study received approval from the local Bioethics Committee at the Medical University of Gdańsk (NKBBN/262/2019).

E. faecium ATCC 700221 = format: cell-based, Enterococcus faecium; conditions: ATCC 700221, 18 h
Description: as §1, §2

[4] = test system: K. pneumoniae ATCC 700603; format: cell-based, Klebsiella pneumoniae; conditions: ATCC 700603, 18 h
Description: as §1, §2

[5] = test system: A. baumannii ATCC BAA-1605; format: cell-based, Acinetobacter baumannii; conditions: ATCC BAA-1605, 18 h
Description: as §1, §2

K. aerogenes ATCC 13048 = format: cell-based, Klebsiella aerogenes; conditions: ATCC 13048, 18 h
Description: as §1, §2

Compound	tR’ [1] [min]	MIC SA (S. aureus ATCC 25923)	MIC S [2]	MIC PA (P. aeruginosa ATCC 9027) [µg/mL]	MIC CA (C. albicans ATCC 10231; ATCC 10231, 24 h, pH 7) [µg/mL]	HC50 [3]	MIC E1 (E. faecium ATCC 700221)	MIC K [4]	MIC A [5] [µg/mL]	MIC E2 (K. aerogenes ATCC 13048)	MIC CA (C. albicans ATCC 10231; C. albicans ATCC 10231, RPMI-1640 with 2% D-glucose, MOPS pH 7.0, 2 × 10^3 CFU/mL, 0.5–256 µg/mL, 37 °C, 24 h, triplicate) [µg/mL]
CCCCCCCCCC(=O)N[C@@H](Cc1c[nH]c2ccccc12)C(=O)N[C@@H](CCCNC(=N)N)C(=O)N[C@@H](CCCNC(=N)N)C(N)=O [compound 96, C10-WRR-NH2] (HELM PEPTIDE1{[CCCCCCCCCC(=O)[*:2]].W.R.R.[am]}$$$$V2.0)	34.31	16 (>16) µg/mL	16 (>16) µg/mL	32 (≈ 47.8 µM)	32 (≈ 47.8 µM)	>256 µg/mL	16 (>16) µg/mL	>256 (-) µg/mL	64 (≈ 95.5 µM)	>256 (-) µg/mL	
CCCCCCCCCCCC(=O)N[C@@H](Cc1c[nH]c2ccccc12)C(=O)N[C@@H](CCCNC(=N)N)C(=O)N[C@@H](CCCNC(=N)N)C(N)=O [compound 97, C12-WRR-NH2] (HELM PEPTIDE1{[CCCCCCCCCCCC(=O)[*:2]].W.R.R.[am]}$$$$V2.0)	40.79	4 µg/mL (≈ 5.73 µM)	2 µg/mL (≈ 2.87 µM)	8 (≈ 11.5 µM)	8 (≈ 11.5 µM)	42.42 (±0.57) µg/mL	8 µg/mL (≈ 11.5 µM)	256 µg/mL (≈ 367 µM)	32 (≈ 45.8 µM)	256 µg/mL (≈ 367 µM)	
CCCCCCCCCCCCCC(=O)N[C@@H](CCC)C(=O)N[C@@H](CCCNC(=N)N)C(=O)N[C@@H](CCCNC(=N)N)C(N)=O [compound 70, C14-NvaRR-NH2] (HELM PEPTIDE1{[CCCCCCCCCCCCCC(=O)[*:2]].[Nva].R.R.[am]}$$$$V2.0)	44.53	4 µg/mL (≈ 6.26 µM)	4 µg/mL (≈ 6.26 µM)	8 (≈ 12.5 µM)	4 (≈ 6.26 µM)	42.04 (±1.38) µg/mL	4 µg/mL (≈ 6.26 µM)	128 µg/mL (≈ 200 µM)	64 (≈ 100 µM)	128 µg/mL (≈ 200 µM)	
CCCCCCCCCCCCCCCC(=O)N[C@@H](CCCNC(=N)N)C(=O)N[C@@H](CCCNC(=N)N)C(N)=O [compound 5, C16-RR-NH2, reference compound] (HELM PEPTIDE1{[CCCCCCCCCCCCCCCC(=O)[*:2]].R.R.[am]}$$$$V2.0)	46.51	8 µg/mL (≈ 14.1 µM)	8 µg/mL (≈ 14.1 µM)	16 (≈ 28.2 µM)		22.91 (±1.18) µg/mL	8 µg/mL (≈ 14.1 µM)	32 µg/mL (≈ 56.4 µM)	32 (≈ 56.4 µM)	32 µg/mL (≈ 56.4 µM)	4 (≈ 7.04 µM)
CCCCCCCCCCCC(=O)N[C@@H](Cc1ccc(O)cc1)C(=O)N[C@@H](CCCNC(=N)N)C(=O)N[C@@H](CCCNC(=N)N)C(N)=O [compound 101, C12-YRR-NH2] (HELM PEPTIDE1{[CCCCCCCCCCCC(=O)[*:2]].Y.R.R.[am]}$$$$V2.0)	36.17	8 µg/mL (≈ 11.9 µM)	8 µg/mL (≈ 11.9 µM)	16 (≈ 23.7 µM)	32 (≈ 47.4 µM)	123.08 (±1.12) µg/mL	16 µg/mL (≈ 23.7 µM)	128 µg/mL (≈ 190 µM)	32 (≈ 47.4 µM)	128 µg/mL (≈ 190 µM)	
